The target in the first data set is T1, CB1 cannabinoidergic receptors (Mus musculus, UniProt P47746).
T1 construct: the complete brain (excluding the cerebellum) and the spleen were quickly dissected and kept in ice; from tissue; host or cells: mouse brain (excluding the cerebellum) membranes
T1 sequence (P47746 whole entry): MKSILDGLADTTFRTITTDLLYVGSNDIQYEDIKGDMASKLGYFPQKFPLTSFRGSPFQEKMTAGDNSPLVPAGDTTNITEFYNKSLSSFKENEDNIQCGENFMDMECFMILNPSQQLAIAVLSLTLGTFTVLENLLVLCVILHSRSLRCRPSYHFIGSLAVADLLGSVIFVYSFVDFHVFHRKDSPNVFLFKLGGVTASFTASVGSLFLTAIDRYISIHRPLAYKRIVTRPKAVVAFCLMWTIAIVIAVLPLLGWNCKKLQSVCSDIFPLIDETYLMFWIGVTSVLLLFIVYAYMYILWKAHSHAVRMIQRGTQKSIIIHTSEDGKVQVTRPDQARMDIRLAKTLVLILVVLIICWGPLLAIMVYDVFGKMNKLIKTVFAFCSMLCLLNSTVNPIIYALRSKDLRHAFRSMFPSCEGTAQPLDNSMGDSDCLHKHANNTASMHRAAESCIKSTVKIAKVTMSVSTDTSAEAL
Kind of data set: Radioreceptor binding, displacement of [3H]-CP-55,940, CB1 receptors (mouse brain membranes).
Conditions: not given
The protocol: (§1) The affinity of the compounds towards the CB1 and CB2 cannabinoidergic receptors was evaluated in vitro by radioreceptor binding studies using the following method.
(§2) The technique of the receptor binding allows to establish if, and with which affinity and specificity, a specific compound binds to a particular receptor. To evaluate the affinity of a specific compound to a particular receptor it is necessary to challenge in a particular tissue preparation wherein those specific receptors are present the compound to be tested with a radioactive labelled compound whose affinity for the same receptors is known. […] The amount of radioactivity present in the receptor-compound complex allows furthermore to stimate with great accuracy the amount of compound bound to the receptor. By said method it is therefore possible to stablish quickly the affinity of a new compound towards a specific receptor and thus to determine its pharmacological activity. […]
(§3) The thus obtained membranes (50-80 μg of proteins) were incubated in the presence of 1 nM of [^3H]-CP55.940 for 1 hour at 30° C. in a final volume of 0.5 ml of TME buffer containing 5 mg/ml of bovine serum albumin (BSA). The non specific binding was measured in the presence of CP55.940 at a 1 μM concentration. […]
(§4) The radioactivity present in the filters was determined by a scintillator spectrophotometer (Tricarb® 2100, Packard, Meridien, USA). […]
T2 sequence (P47936 whole entry): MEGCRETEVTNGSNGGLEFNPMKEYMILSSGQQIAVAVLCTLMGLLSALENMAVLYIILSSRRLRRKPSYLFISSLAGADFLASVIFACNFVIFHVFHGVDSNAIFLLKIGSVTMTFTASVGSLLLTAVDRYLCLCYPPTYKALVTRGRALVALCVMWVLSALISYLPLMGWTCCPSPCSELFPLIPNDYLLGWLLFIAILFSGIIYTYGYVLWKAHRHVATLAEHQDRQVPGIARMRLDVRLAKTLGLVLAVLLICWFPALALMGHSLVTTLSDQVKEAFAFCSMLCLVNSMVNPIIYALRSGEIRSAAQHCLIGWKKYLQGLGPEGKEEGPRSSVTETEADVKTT
As a reminder, the Ki is a measure of affinity in units of concentration, obtained from inhibition or displacement. The low end stands for tighter binding, the high end for weaker binding. In the case of `Cc1ccc2c(c1)oc1c(C(N)=O)nn(-c3ccc(Cl)cc3Cl)c12` [1-(2,4-dichlorophenyl)-6-methyl-1H-benzofuro[3,2-c]pyrazole-3-carboxamide], the Ki was greater than 3 µM.

Test system in the next data set: not given
Experiment: not given
Conditions: not given
A word on the melting point: it is the temperature of the solid-liquid transition. As for `Cc1ccc2c(c1)oc1c(C(=O)NC3C4CC5CC(C4)CC3C5)nn(-c3ccc(Cl)cc3Cl)c12` (stereo not drawn) [Example 3.29, N-adamantan-2yl-1-(2,4-dichlorophenyl)-6-methyl-1H-benzofuro[3,2-c]pyrazole-3-carboxamide], the melting point was 209 to 211 °C.
With `Cc1ccc2c(c1)oc1c(C(=O)N[C@@H]3C[C@H]4C[C@@H]([C@@H]3C)C4(C)C)nn(-c3ccc(Cl)cc3Cl)c12` [Example 3.25, N-2,6,6-trimethyl-bicyclo[3.1.1]hept-3yl-1-(2,4-dichlorophenyl)-6-methyl-1H-benzofuro[3,2-c]pyrazole-3-carboxamide], the melting point lay within 85 to 87 °C.
Still for that read-out and setting: for `Cc1ccc2c(c1)oc1c(C(=O)NC34CC5CC(CC(C5)C3)C4)nn(-c3ccc(Cl)cc3Cl)c12` [Example 3.28, N-adamantan-1yl-1-(2,4-dichlorophenyl)-6-methyl-1H-benzofuro[3,2-c]pyrazole-3-carboxamide] the value was 210 to 212 °C; for `Cc1ccc2c(c1)oc1c(C(=O)NN3CCOCC3)nn(-c3ccc(Cl)cc3Cl)c12` [Example 3.22, N-morpholin-4yl-1-(2,4-dichlorophenyl)-6-methyl-1H-benzofuro[3,2-c]pyrazole-3-carboxamide], 178 to 180 °C.
As to `Cc1ccc2c(c1)oc1c(C(=O)NC3C4(C)CCC(C4)C3(C)C)nn(-c3ccc(Cl)cc3Cl)c12` (stereo not drawn) [Example 3.26, N-1,3,3-trimethyl-bicyclo[2.2.1]hept-2yl-1-(2,4-dichlorophenyl)-6-methyl-1H-benzofuro[3,2-c]pyrazole-3-carboxamide], the melting point was 84 to 86 °C.
Consider `Cc1ccc2c(c1)oc1c(C(=O)NC3CC4CCC3(C)C4(C)C)nn(-c3ccc(Cl)cc3Cl)c12` (stereo not drawn) [Example 3.27, N-1,7,7-trimethyl-bicyclo[2.2.1]hept-2yl-1-(2,4-dichlorophenyl)-6-methyl-1H-benzofuro[3,2-c]pyrazole-3-carboxamide], for which the melting point lay within 78 to 80 °C.
On the same count and under the same terms, for `Cc1ccc2c(c1)oc1c(C(N)=O)nn(-c3ccc(Cl)cc3Cl)c12` [1-(2,4-dichlorophenyl)-6-methyl-1H-benzofuro[3,2-c]pyrazole-3-carboxamide] the value was 185 to 186 °C; for `Cc1ccc2c(c1)oc1c(C(=O)N[C@H]3C[C@@H](C)CC[C@@H]3C(C)C)nn(-c3ccc(Cl)cc3Cl)c12` [Example 3.24, N-2-isopropyl-5-methyl-cyclohexyl-1-(2,4-dichlorophenyl)-6-methyl-1H-benzofuro[3,2-c]pyrazole-3-carboxamide], 70 to 72 °C.
Same read-out and setting: for `Cc1ccc2c(c1)oc1c(C(=O)NC3CCCCC3)nn(-c3ccc(Cl)cc3Cl)c12` [Example 3.23, N-cyclohexyl-1-(2,4-dichlorophenyl)-6-methyl-1H-benzofuro[3,2-c]pyrazole-3-carboxamide] the value was 140 to 142 °C.
As to `Cc1ccc2c(c1)oc1c(C(=O)NN3CCCC3)nn(-c3ccc(Cl)cc3Cl)c12` [Example 3.21, N-pirrolidinyl-1-(2,4-dichlorophenyl)-6-methyl-1H-benzofuro[3,2-c]pyrazole-3-carboxamide], the melting point lay within 90 to 92 °C.

The next data set has as its target T2, CB2 cannabinoidergic receptors (Mus musculus, UniProt P47936).
T2 construct: the complete brain (excluding the cerebellum) and the spleen were quickly dissected and kept in ice; from tissue; host or cells: mouse spleen membranes
Kind of data set: Radioreceptor binding, displacement of [3H]-CP-55,940, CB2 receptors (mouse spleen membranes). To be noted: 1 nM [3H]-CP55,940, 1 hour at 30° C. The protocol: as §1, §2, §3, §4
For orientation: Loss of bound radioactivity is the signal in a displacement assay; it reports binding, not function.
`Cc1ccc2c(c1)oc1c(C(N)=O)nn(-c3ccc(Cl)cc3Cl)c12` [1-(2,4-dichlorophenyl)-6-methyl-1H-benzofuro[3,2-c]pyrazole-3-carboxamide] gave a Ki greater than 3 µM.

Values taken from US20100216785A1, “PHARMACEUTICAL COMPOSITIONS” (NEUROSCIENZE PHARMANESS S.C. A.R.L., priority 2009, published 2010).
